The source of these data is patent publication US8058468B2, “Carbamate antibiotics” (Nederlandse Organisatie Voor …, priority 2005, dated 2011).

Data set [1] concerns multiple strains of S. aureus. Briefly: MIC test on multiple strains of S. aureus. The following applies: for MIC 50 / MIC 90: 59-60 tested S. aureus strains; for Range MIC (lowest-highest): highest: highest value over 59-60 tested S. aureus strains; for Range MIC (lowest-highest): lowest: lowest value over 59-60 tested S. aureus strains. It is filed as cell-based, Staphylococcus aureus. The method, then: MIC test were performed according to standard methodology: M7-A6-“Methods for Dilution Antimicrobial Susceptibility Tests for Bacteria That Grow Aerobically”; Approved Standard, Sixth Edition Clinical and Laboratory Standards Institute 2005 (CLSI/formerly NCCLS). The MIC values are expressed as a range between the lowest value and the highest value found in these experiments. Both the average MIC50 and MIC90 are indicated in bold.

For data set [2], the system named is S. aureus MW2. Put plainly: MIC test (CLSI M7-A6), single strain. It counts as cell-based. To be noted: Staphylococcus aureus. How it is done:
(§1) MIC test were performed according to standard methodology: M7-A6-“Methods for Dilution Antimicrobial Susceptibility Tests for Bacteria That Grow Aerobically”; Approved Standard, Sixth Edition Clinical and Laboratory Standards Institute 2005 (CLSI/formerly NCCLS).
(§2) Table 2 lists the results of 3 different compounds according to Formula (I) on single strains of S. aureus as MIC values expressed in micrograms per milliliter.

Data set [3] relates to S. aureus ATCC 29213. Briefly: MIC test (CLSI M7-A6), single strain. It is filed as cell-based. To be noted: Staphylococcus aureus, ATCC29213; single strain ATCC 29213. The method, then:
as §1, §2

Data set [4] has as its system S. aureus N315. Briefly: MIC test (CLSI M7-A6), single strain. The following applies: Staphylococcus aureus. It is filed as cell-based. How it is done: as §1, §2
The test system of data set [5] is MRSA 2141. Briefly: Local thigh muscle infection with MRSA 2141 in the mouse, CFU outgrowth. It is filed as in vivo. The following applies: for Log reduction of MRSA 2141 CFU in thigh muscle: vs vehicle; for Reduction of bacterial outgrowth against the untreated group: P≦0.01. How it is done:
(§3) The purpose of this study was to investigate the antibiotic efficacy of different doses of compound BAS00674552 against a local infection with MRSA 2141 in the mouse. Thirty mice were treated intravenously with 0.5, 5.0 or 50 mg/kg body weight, respectively. The observation period was three days. Outgrowth of the infection was used to establish drug efficacy.
The test substances were administered as a solution in dimethylsulfoxide (DMSO). The test substance was administered as 20 μl injections per mouse at all dose levels. Vancomycin was used as positive control and injected intravenously as a 10 mg/ml solution in DMSO (20 μl per mouse).
The study was performed according to Lab-Sop-Amp-Anim-002 and Lab-Sop-Amp-Bac-003. In short, mice were injected with 11E05 MRSA bacteria, strain 2141 in the right thigh muscle, followed one day later by an i.v. injection of the test compound, vancomycin or vehicle in the tail vein. 24 hours later mice were sacrificed, blood was collected by heart puncture and the right thigh muscle was removed. Plasma was prepared from blood samples and stored at −80°±10° C. for possible future analysis. Thigh muscles were weighted and homogenized using an Ultra-Turrax® and dilutions of the homogenate were prepared in saline. Limiting dilutions were plated onto agar plates and two days later the number of MRSA 2141 CFU were determined for each individual mouse as an indication of bactericidal activity of the compound. Additionally, tests were performed to determine if the bacteria used are still oxacillin resistant Staphylococcus aureus. This was done before injection and on pooled thigh muscle isolates per group. For this purpose Staphaurex® (Remel Europe Ltd., Crossways, UK) and ORSAB®+supplements (Oxoid Ltd., Basingstoke, UK) were used. In vivo antibiotic activity is determined by a CFU reduction of >90% (1 log reduction) in comparison to the negative control (vehicle only).
The study was comprised five groups of 10 females each.

Data set [6] is described as follows: Observation scoring for adverse side effects in infected treated mice. The following applies: all animals. It is filed as in vivo, mouse. How it is done: as §3
For data set [7], the system named is S. aureus ATCC6538. Briefly: Further MIC tests, performed as in Example 1. It is filed as cell-based. The following applies: Staphylococcus aureus. The method, then: as §1
Further MIC tests, performed as in Example 1, were performed on several of the above synthesized compounds.

Where [8] appears, read: duplo (duplicate determination), read-out: MIC-value S. aureus ATCC6538 duplo.
Where [9] appears, read: first determination, read-out: MIC-value S. aureus ATCC6538.

Converted amounts (≈) assume the structure as drawn. Read-outs that look alike come from different tables or passages of the source.

As a reminder, the MIC is the least concentration at which growth counts as inhibited. As to `CCOC(=O)NCCOC(=O)Nc1ccc(Cl)c(Cl)c1` [BAS 00212008, (3,4-dichloro-phenyl)-carbamic acid 2-ethoxycarbonylamino-ethyl ester], in data set [1], the “MIC 50” value was more than 32 microgram/milliliter, the “MIC 90” value is given as more than 32 microgram/milliliter, the “Range MIC (lowest-highest): highest” value was more than 32 microgram/milliliter and the “Range MIC (lowest-highest): lowest” value was more than 32 microgram/milliliter. Inhibition of growth in data set [2] (MIC) required 16 µg/mL (≈ 49.8 µM). For the same molecule, inhibition of growth in data set [3] (MIC) required 16 µg/mL (≈ 49.8 µM). The molecule further returned an MIC in data set [4] of 8 µg/mL (≈ 24.9 µM).
`CCC(COC(=O)Nc1ccc(Cl)c(Cl)c1)NC(=O)OC(C)C` (centres unmarked) [BAS 00674544, (3,4-dichloro-phenyl)-carbamic acid 2-isopropoxycarbonylamino-butyl ester]: in data set [1], the “MIC 50” value stood at 16 microgram/milliliter, the “MIC 90” value came to 32 microgram/milliliter, the “Range MIC (lowest-highest): highest” value is more than 32 microgram/milliliter and the “Range MIC (lowest-highest): lowest” value was 8 microgram/milliliter. Also, the lowest concentration to inhibit growth in data set [2] (MIC) was 8 µg/mL (≈ 22 µM). The minimal inhibitory concentration (MIC) in data set [3] is 8 µg/mL (≈ 22 µM). Further, it took 8 µg/mL (≈ 22 µM) to inhibit growth in data set [4] (MIC).
In the case of `CC(C)COC(=O)NCC(C)OC(=O)Nc1ccc(Cl)c(Cl)c1` (centres unmarked) [BAS 00674552, (3,4-dichloro-phenyl)-carbamic acid 2-isobutoxycarbonylamino-1-methyl-ethyl ester], the “Log reduction of MRSA 2141 CFU in thigh muscle” value is recorded as “Approximately 2 Log” in data set [5] (5 mg/kg single i.v. dose, 24 h after dosing) and “Approximately 2 Log” in data set [5] (50 mg/kg single i.v. dose, 24 h after dosing). Moreover, the “Reduction of bacterial outgrowth against the untreated group” value in data set [5] (5 mg/kg) and in data set [5] (50 mg/kg) was “significant reduction of bacterial outgrowth” each time. In addition, the “Efficacy against local MRSA 2141 infection (statistical analysis)” value in data set [5] (all doses, P≦0.001) was “effective”. Besides, in data set [1], the “MIC 50” value was determined as 8 microgram/milliliter. For the same molecule, the “MIC 90” value in data set [1] is 16 microgram/milliliter. In data set [1], the “Range MIC (lowest-highest): highest” value is on record as more than 32 microgram/milliliter. Moreover, the “Range MIC (lowest-highest): lowest” value in data set [1] is on record as 4 microgram/milliliter. The minimum inhibitory concentration (MIC) in data set [2] was determined as 4 µg/mL (≈ 11 µM); in data set [3], 8 µg/mL (≈ 22 µM); in data set [4], 4 µg/mL (≈ 11 µM); in data set [7] (setting [8]), 6.25 µg/mL (≈ 17.2 µM); in data set [7] (setting [9]), 25 µg/mL (≈ 68.8 µM). Also, the “Score on observation scoring sheets (DEC guidelines)” value in data set [6] is reported as less than 8. Besides, the Adverse side effects entry in data set [6] (single i.v. dose 0.5-50 mg/kg) is “no signs of adverse side effects were observed”.
For `Cc1ccc(NC(=O)OC(C)CNC(=O)OCC(C)C)cc1` (centres unmarked) [TAC 1_005, p-tolyl-carbamic acid 2-isobutoxycarbonylamino-1-methyl-ethyl ester], the MIC turned out to be 50 µg/mL (≈ 162 µM) in data set [7] (setting [8]) and 100 µg/mL (≈ 324 µM) in data set [7] (setting [9]).
As to `CC(C)COC(=O)NCC(C)OC(=O)Nc1ccc(C(F)(F)F)cc1` (centres unmarked) [TAC 1_007, (4-trifluoromethyl-phenyl)-carbamic acid 2-isobutoxycarbonylamino-1-methyl-ethyl ester], the minimal inhibitory concentration (MIC) in data set [7] (setting [8]) is 25 µg/mL (≈ 69 µM); in data set [7] (setting [9]), 12.5 µg/mL (≈ 34.5 µM).
The matching figures for `NC(=O)OCCOC(=O)Nc1ccc(Cl)c(Cl)c1` [TAC 1_009, (3,4-dichloro-phenyl)-carbamic acid 2-carbamoyloxy-ethyl ester]: 50 µg/mL (≈ 171 µM) and 100 µg/mL (≈ 341 µM).
Regarding `CNC(=O)OCCOC(=O)Nc1ccc(Cl)c(Cl)c1` [TAC 1_010, (3,4-dichloro-phenyl)-carbamic acid 2-methylcarbamoyloxy-ethyl ester], the MIC in data set [7] (setting [8]) worked out at 50 µg/mL (≈ 163 µM); in data set [7] (setting [9]), 100 µg/mL (≈ 326 µM).
Regarding `CCNC(=O)OCCOC(=O)Nc1ccc(Cl)c(Cl)c1` [TAC 1_011, (3,4-dichloro-phenyl)-carbamic acid 2-ethylcarbamoyloxy-ethyl ester], the MIC in data set [7] (setting [8]) and in data set [7] (setting [9]) was 100 µg/mL (≈ 311 µM) throughout.
As for `CN[C@H](CC(C)C)C(=O)N[C@H]1C(=O)N[C@@H](CC(N)=O)C(=O)N[C@H]2C(=O)N[C@H]3C(=O)N[C@H](C(=O)N[C@H](C(=O)O)c4cc(O)cc(O)c4-c4cc3ccc4O)[C@H](O)c3ccc(c(Cl)c3)Oc3cc2cc(c3O[C@@H]2O[C@H](CO)[C@@H](O)[C@H](O)[C@H]2O[C@H]2C[C@](C)(N)[C@H](O)[C@H](C)O2)Oc2ccc(cc2Cl)[C@H]1O` [vancomycin, Vancomycin, reference compound], in data set [5] (positive control, 10 mg/ml i.v., 20 μl per mouse (10 mg/kg)), the “Log reduction of MRSA 2141 CFU in thigh muscle” value is reported as “Over 1 Log”.
